From patent publication US6930092B1, “Antibiotic agents” (priority 1999, dated 2005)
Like-named read-outs stand apart in the source and are kept apart here.

Legend:
[1] = type: physicochemical
Experimental: The suspected intermediate, eBee was prepared and then was added into a partially degraded erythromycin B, the mixture of partially degraded erythromycin B, and the pure eBee solution were compared. […] However, the involvement of eBee as the intermediate in the degradation of erythromycin B was clearly observed in the degradation experiment of eBee.
At present, there is no mechanism of degradation of erythromycin B which has been proposed. An experiment was designed to distinguish whether eBee is degraded to 5-deB via erythromycin B or not. Britton-Robinson buffers, 40 mM of pH2 and 7 were prepared and aliquoted into eppendorf tubes. Just before the experiment started, erythromycin B was dissolved in 20 ul of dimethyl-d6 sulfoxide (99.9 atom % D, Sigma, St Louis, USA) and then was transferred immediately into the buffer and 1D^1H NMR spectra were recorded at 37° C. The typical spectra at 0, 10 and 20 min are depicted in FIGS. 19, 20 and 21, respectively.
After 10 min, the amount of eBee was reduced to almost 40%, but 5-deB was still undetectable. After 20 min, 5-deB appeared in the spectrum, characterised by its H13 at δ5.38, whilst eBee became insignificant in the spectrum.
A similar experiment was repeated by using buffer at pH 7, and 1D^1H spectra were recorded at 37° C. The spectrum of eBee after 0 and 60 min of incubation are depicted in FIGS. 22 and 23, respectively. […] There was trace of erythromycin B but no eBee was detected in the spectra.

[2] = Degradation of 5-deB in Britton-Robinson buffer followed by 1D 1H NMR; type: physicochemical; settings: apparent pH 2.5, 55° C., 5 hr
Source text: The deuteriation effects at C8 as in erythromycin B were observed but there was no change elsewhere.

[3] = cited from earlier work

For `CC[C@H]1OC(=O)[C@H](C)[C@@H](O[C@H]2C[C@@](C)(OC)[C@@H](O)[C@H](C)O2)[C@H](C)[C@@H](O[C@@H]2O[C@H](C)C[C@H](N(C)C)[C@H]2O)[C@](C)(O)C[C@@H](C)C(=O)[C@H](C)[C@@H](O)[C@H]1C` [erythromycin B, Erythromycin B], the “time in which decomposition was completed” value (pH 2.5, depending on the temperature used) was 6 to 12 h and the degradation (pH 4.6) was “degradation occurred very slowly”.

In the case of `CC[C@H]1OC(=O)[C@H](C)[C@@H](O[C@H]2C[C@@](C)(OC)[C@@H](O)[C@H](C)O2)[C@H](C)[C@@H](O[C@@H]2O[C@H](C)C[C@H](N(C)C)[C@H]2O)C2(C)CC(C)=C(O2)[C@H](C)[C@@H](O)[C@H]1C` (stereo partly shown) [eBee, erythromycin B enol ether], the “amount of eBee in the spectrum” value ([1]; Britton-Robinson buffer pH 2, 37° C., after 20 min) is reported as “insignificant”, the “amount of eBee remaining” value ([1]; buffer, 10 min, pH 2) is reported as about 40% and the degradation ([1]; pH 2.5) is reported as “rapidly degraded to erythromycin B”. The degradation ([1]; pH 7) was “not degraded at least for 80 min”.

With 5-desosaminyl erythronolide B [5-deB] the further degradation [2] was “does not degrade further”.

For `CC[C@H]1OC(=O)[C@H](C)[C@@H](O[C@H]2C[C@@](C)(OC)[C@@H](O)[C@H](C)O2)[C@H](C)[C@@H](O[C@@H]2O[C@H](C)C[C@H](N(C)C)[C@H]2O)[C@](C)(O)C[C@@H](C)C(=O)[C@H](C)[C@@H](O)[C@]1(C)O` [erythromycin A], the “time in which degraded to completeness” value ([3]; 50 mM acetate buffer pH 4.6, 60° C.) is listed as at most 3 h, the “time in which decomposed almost completely” value ([3]; 50 mM formate buffer pH 4, 37° C.) is listed as at most 4 h and the degradation ([3]; pH 3.5, 35° C.) is listed as “degraded substantially even before the first spectrum was recorded”.
